Data: US11034725B2, “Compositions and methods for treating cardiovascular disease” (Genentech, Inc., priority 2016, dated 2021)
Numbered stars: 1 amine (or outer) side, 2 acyl side, 3 side chain; on linkers, the order of the positions; unused ones are H or OH. Square brackets hold non-standard residues; d marks the D form. Peptide text beside a SMILES is read from it. * marks the point of attachment. Propanoyl(3-(4-MeO-Ph)) = COc1ccc(CCC(=O)*)cc1; Desaminohistidyl = O=C(CCc1c[nH]cn1)*; Butanoyl(4-Ph) = O=C(CCCc1ccccc1)*; X16 = O=C(c1cc(-c2ccncc2)[nH]n1)*; X14 = O=C(CC1CCN([*:1])CC1)[*:2]; X45 = CC(=O)c1ccc(OCCCC(=O)*)cc1; hArg = N=C(N)NCCCC[C@H](N)C(=O)O; X3 = O=C(CC1CCN(Cc2ccccn2)CC1)*; X36 = CC(=O)c1ccc(OCCC(=O)*)cc1; X8 = O=C(c1ccc(N2CCOCC2)nc1)*; X18 = COc1ccc(OCCC(=O)*)cc1; X12 = O=C(CCCc1ccc(F)cc1)*; X40 = CC(CC(=O)*)CC(C)(C)C; X29 = Nc1ccc(CCC(=O)*)cc1; X33 = CN1CCN(CCC(=O)*)CC1; Pentanoyl = CCCCC(=O)*; X23 = NC(=O)NCCC(=O)*; Ms = CS(=O)(=O)*

Tests used:
PCSK9 = PCSK9 (Homo sapiens, UniProt Q8NBP7); assay: PCSK9/EGF(A) TR-FRET binding assay; conditions: TR-FRET; Table 8E, additional compounds; read-out: PCSK9/EGF(A) IC50
PCSK9Δhelix = target: T1, PCSK9Δhelix (Homo sapiens, UniProt Q8NBP7); assay: PCSK9Δhelix/Ab20 TR-FRET binding assay; conditions: TR-FRET; Table 8E, additional compounds; read-out: PCSK9Δhelix/Ab20 IC50
T1 construct: Human PCSK9 construct M1-Q692 with an engineered TEV site (residue deletion Y166, R167); made in house; host or cells: CHO
T1 sequence (Q8NBP7 with tags, fused parts or gaps limits assumed): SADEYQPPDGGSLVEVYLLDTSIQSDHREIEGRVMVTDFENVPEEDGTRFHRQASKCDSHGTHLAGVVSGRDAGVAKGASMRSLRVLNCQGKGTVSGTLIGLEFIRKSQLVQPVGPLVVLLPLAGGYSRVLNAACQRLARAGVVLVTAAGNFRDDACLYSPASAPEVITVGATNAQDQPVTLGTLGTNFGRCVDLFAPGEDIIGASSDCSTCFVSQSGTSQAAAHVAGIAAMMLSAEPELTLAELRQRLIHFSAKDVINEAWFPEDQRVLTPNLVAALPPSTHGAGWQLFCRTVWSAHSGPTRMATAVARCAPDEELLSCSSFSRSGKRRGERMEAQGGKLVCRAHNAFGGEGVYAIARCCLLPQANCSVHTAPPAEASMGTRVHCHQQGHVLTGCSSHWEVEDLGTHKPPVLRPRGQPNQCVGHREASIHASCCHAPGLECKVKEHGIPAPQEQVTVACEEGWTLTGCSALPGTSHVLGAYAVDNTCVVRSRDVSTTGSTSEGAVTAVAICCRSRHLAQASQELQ
T1 sequence (Q8NBP7 31-152 partner limits assumed): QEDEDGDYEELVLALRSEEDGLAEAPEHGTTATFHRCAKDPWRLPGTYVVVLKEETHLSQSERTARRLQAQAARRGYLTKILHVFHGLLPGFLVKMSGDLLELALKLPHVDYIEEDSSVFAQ

Chain of PCSK9 (Q8NBP7 153-692): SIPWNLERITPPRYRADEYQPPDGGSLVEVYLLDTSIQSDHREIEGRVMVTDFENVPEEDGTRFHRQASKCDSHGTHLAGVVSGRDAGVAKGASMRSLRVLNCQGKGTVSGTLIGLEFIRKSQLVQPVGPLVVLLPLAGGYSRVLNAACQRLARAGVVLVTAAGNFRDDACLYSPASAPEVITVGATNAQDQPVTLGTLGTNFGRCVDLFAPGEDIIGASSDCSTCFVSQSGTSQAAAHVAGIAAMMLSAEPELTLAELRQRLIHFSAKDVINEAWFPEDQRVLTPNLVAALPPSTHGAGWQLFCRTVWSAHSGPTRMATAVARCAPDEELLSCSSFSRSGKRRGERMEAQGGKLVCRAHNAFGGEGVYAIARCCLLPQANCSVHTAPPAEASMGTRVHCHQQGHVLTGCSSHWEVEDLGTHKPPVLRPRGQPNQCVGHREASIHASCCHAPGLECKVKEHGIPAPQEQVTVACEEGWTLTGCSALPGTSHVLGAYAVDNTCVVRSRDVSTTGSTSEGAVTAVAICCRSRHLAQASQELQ
Chain of PCSK9 (Q8NBP7 31-152 partner limits assumed): as the sequence (Q8NBP7 31-152 partner limits assumed) above

SMILES	IC50 (PCSK9) [µM]	IC50 (PCSK9Δhelix) [µM]
CC[C@H](C)[C@H](NC(=O)[C@H](CCCNC(=N)N)NC(=O)[C@@H](NC(=O)[C@H](CC(C)C)NC(=O)[C@H](CC(N)=O)NC(=O)[C@H](Cc1c[nH]c2ccccc12)NC(=O)CCc1c[nH]cn1)C(C)C)C(=O)NCC(=O)N[C@@H](CC(C)C)C(=O)N[C@@H](CC(C)C)C(=O)N[C@@H](CCCNC(=N)N)C(N)=O [Compound 132] (Desaminohistidyl-WNLVRIGLLR-NH2)	≥ 50	9
CC[C@H](C)[C@H](NC(=O)[C@H](CCCCNC(=N)N)NC(=O)[C@@H](NC(=O)[C@H](CC(C)C)NC(=O)[C@H](CC(N)=O)NC(=O)[C@H](Cc1c[nH]c2ccccc12)NC(=O)CCCc1ccc(F)cc1)C(C)C)C(=O)NCC(=O)N[C@@H](CC(C)C)C(=O)N[C@@H](CC(C)C)C(=O)N[C@@H](CCCNC(=N)N)C(N)=O [Compound 196] (X12-WNLV[hArg]IGLLR-NH2)	7.3	1.4
CC[C@H](C)[C@H](NC(=O)[C@H](CCCNC(=N)N)NC(=O)[C@@H](NC(=O)[C@H](CC(C)C)NC(=O)[C@H](CC(N)=O)NC(=O)[C@H](Cc1c[nH]c2ccccc12)NC(=O)CCN1CCN(C)CC1)C(C)C)C(=O)NCC(=O)N[C@@H](CC(C)C)C(=O)N[C@@H](CC(C)C)C(=O)N[C@@H](CCCNC(=N)N)C(N)=O [Compound 140] (X33-WNLVRIGLLR-NH2)	≥ 50	26
CC[C@H](C)[C@H](NC(=O)[C@H](CCCNC(=N)N)NC(=O)[C@@H](NC(=O)[C@H](CC(C)C)NC(=O)[C@H](CC(N)=O)NC(=O)[C@H](Cc1c[nH]c2ccccc12)NC(=O)CCCOc1ccc(C(C)=O)cc1)C(C)C)C(=O)NCC(=O)N[C@@H](CC(C)C)C(=O)N[C@H](C(=O)N[C@@H](CCCNC(=N)N)C(N)=O)[C@@H](C)O [Compound 183] (X45-WNLVRIGLTR-NH2)	18	2.5
CC[C@H](C)[C@H](NC(=O)[C@H](CCCCNC(=N)N)NC(=O)[C@@H](NC(=O)[C@H](CC(C)C)NC(=O)[C@H](CC(N)=O)NC(=O)[C@H](Cc1c[nH]c2ccccc12)NC(=O)CCc1ccc(N)cc1)C(C)C)C(=O)NCC(=O)N[C@@H](CC(C)C)C(=O)N[C@@H](CC(C)C)C(=O)N[C@@H](CCCNC(=N)N)C(N)=O [Compound 218] (X29-WNLV[hArg]IGLLR-NH2)	5	0.26
CC[C@H](C)[C@H](NC(=O)[C@H](CCCCNC(=N)N)NC(=O)[C@@H](NC(=O)[C@H](CC(C)C)NC(=O)[C@H](CC(N)=O)NC(=O)[C@H](Cc1c[nH]c2ccccc12)NC(=O)CCOc1ccc(C(C)=O)cc1)C(C)C)C(=O)NCC(=O)N[C@@H](CC(C)C)C(=O)N[C@@H](CC(C)C)C(=O)N[C@@H](CCCNC(=N)N)C(N)=O [Compound 205] (X36-WNLV[hArg]IGLLR-NH2)	2.8	0.64
CCCCC(=O)N[C@@H](Cc1c[nH]c2ccccc12)C(=O)N[C@@H](CC(N)=O)C(=O)N[C@@H](CC(C)C)C(=O)N[C@H](C(=O)N[C@@H](CCCCNC(=N)N)C(=O)N[C@H](C(=O)NCC(=O)N[C@@H](CC(C)C)C(=O)N[C@@H](CC(C)C)C(=O)N[C@@H](CCCNC(=N)N)C(N)=O)[C@@H](C)CC)C(C)C [Compound 191, n-BuC(O)-WNLV(homoR)IGLLR-NH2] (Pentanoyl-WNLV[hArg]IGLLR-NH2)	≥ 50	1.3
CC[C@H](C)[C@H](NC(=O)[C@H](CCCNC(=N)N)NC(=O)[C@@H](NC(=O)[C@H](CC(C)C)NC(=O)[C@H](CC(N)=O)NC(=O)[C@H](Cc1c[nH]c2ccccc12)NC(=O)CCc1ccc(OC)cc1)C(C)C)C(=O)NCC(=O)N[C@@H](CC(C)C)C(=O)N[C@H](C(=O)N[C@@H](CCCNC(=N)N)C(N)=O)[C@@H](C)O [Compound 166] ({Propanoyl(3-(4-MeO-Ph))}-WNLVRIGLTR-NH2)	≥ 50	5.9
CC[C@H](C)[C@H](NC(=O)[C@H](CCCNC(=N)N)NC(=O)[C@@H](NC(=O)[C@H](CC(C)C)NC(=O)[C@H](CC(N)=O)NC(=O)[C@H](Cc1c[nH]c2ccccc12)NC(=O)c1ccc(N2CCOCC2)nc1)C(C)C)C(=O)NCC(=O)N[C@@H](CC(C)C)C(=O)N[C@@H](CC(C)C)C(=O)N[C@@H](CCCNC(=N)N)C(N)=O [Compound 134] (X8-WNLVRIGLLR-NH2)	≥ 50	4.2
CC[C@H](C)[C@H](NC(=O)[C@H](CCCNC(=N)N)NC(=O)[C@@H](NC(=O)[C@H](CC(C)C)NC(=O)[C@H](CC(N)=O)NC(=O)[C@H](Cc1c[nH]c2ccccc12)NC(=O)c1cc(-c2ccncc2)[nH]n1)C(C)C)C(=O)NCC(=O)N[C@@H](CC(C)C)C(=O)N[C@@H](CC(C)C)C(=O)N[C@@H](CCCNC(=N)N)C(N)=O [Compound 150] (X16-WNLVRIGLLR-NH2)	22	8.2
CC[C@H](C)[C@H](NC(=O)[C@H](CCCNC(=N)N)NC(=O)[C@@H](NC(=O)[C@H](CC(C)C)NC(=O)[C@H](CC(N)=O)NC(=O)[C@H](Cc1c[nH]c2ccccc12)NC(=O)CC1CCN(S(C)(=O)=O)CC1)C(C)C)C(=O)NCC(=O)N[C@@H](CC(C)C)C(=O)N[C@@H](CC(C)C)C(=O)N[C@@H](CCCNC(=N)N)C(N)=O [Compound 133] (Ms-[X14]WNLVRIGLLR-NH2)	≥ 50	17
CC[C@H](C)[C@H](NC(=O)[C@H](CCCNC(=N)N)NC(=O)[C@@H](NC(=O)[C@H](CC(C)C)NC(=O)[C@H](CC(N)=O)NC(=O)[C@H](Cc1c[nH]c2ccccc12)NC(=O)CC(C)CC(C)(C)C)C(C)C)C(=O)NCC(=O)N[C@@H](CC(C)C)C(=O)N[C@@H](CC(C)C)C(=O)N[C@@H](CCCNC(=N)N)C(N)=O (some centres unmarked) [Compound 149] (X40-WNLVRIGLLR-NH2)	11	8.9
CC[C@H](C)[C@H](NC(=O)[C@H](CCCCNC(=N)N)NC(=O)[C@@H](NC(=O)[C@H](CC(C)C)NC(=O)[C@H](CC(N)=O)NC(=O)[C@H](Cc1c[nH]c2ccccc12)NC(=O)CCCc1ccccc1)C(C)C)C(=O)NCC(=O)N[C@@H](CC(C)C)C(=O)N[C@@H](CC(C)C)C(=O)N[C@@H](CCCNC(=N)N)C(N)=O [Compound 212] ({Butanoyl(4-Ph)}-WNLV[hArg]IGLLR-NH2)	15	1.6
CC[C@H](C)[C@H](NC(=O)[C@H](CCCNC(=N)N)NC(=O)[C@@H](NC(=O)[C@H](CC(C)C)NC(=O)[C@H](CC(N)=O)NC(=O)[C@H](Cc1c[nH]c2ccccc12)NC(=O)CCNC(N)=O)C(C)C)C(=O)NCC(=O)N[C@@H](CC(C)C)C(=O)N[C@@H](CC(C)C)C(=O)N[C@@H](CCCNC(=N)N)C(N)=O [Compound 141] (X23-WNLVRIGLLR-NH2)	≥ 50	36
CC[C@H](C)[C@H](NC(=O)[C@H](CCCCNC(=N)N)NC(=O)[C@@H](NC(=O)[C@H](CC(C)C)NC(=O)[C@H](CC(N)=O)NC(=O)[C@H](Cc1c[nH]c2ccccc12)NC(=O)CCOc1ccc(OC)cc1)C(C)C)C(=O)NCC(=O)N[C@@H](CC(C)C)C(=O)N[C@@H](CC(C)C)C(=O)N[C@@H](CCCNC(=N)N)C(N)=O [Compound 203] (X18-WNLV[hArg]IGLLR-NH2)	21	1.6
CC[C@H](C)[C@H](NC(=O)[C@H](CCCNC(=N)N)NC(=O)[C@@H](NC(=O)[C@H](CC(C)C)NC(=O)[C@H](CC(N)=O)NC(=O)[C@H](Cc1c[nH]c2ccccc12)NC(=O)CC1CCN(Cc2ccccn2)CC1)C(C)C)C(=O)NCC(=O)N[C@@H](CC(C)C)C(=O)N[C@@H](CC(C)C)C(=O)N[C@@H](CCCNC(=N)N)C(N)=O [Compound 130] (X3-WNLVRIGLLR-NH2)	≥ 50	8.6
